Source: publication PMC3361698 (Chemistry & biology, 2012)

Tests used:
[1] = target: T1, EcPPCS (phosphopantothenoylcysteine synthetase) (Escherichia coli, UniProt P0ABQ0); test: CD melting temperature shift; type: binding
[2] = target: T2, SaPanKII (pantothenate kinase, type II) (Staphylococcus aureus, UniProt Q8NVG0); type: biochemical
[3] = target: T2, SaPanKII (pantothenate kinase, type II); test: coupled spectrophotometric kinase assay with purified enzyme; type: biochemical
[4] = target: T1, EcPPCS (phosphopantothenoylcysteine synthetase); test: pyrophosphate release, HPLC/LCMS of cytidylylation; type: biochemical
[5] = target: T1, EcPPCS (phosphopantothenoylcysteine synthetase); test: CD melting temperature shift; type: binding; remark: listed apart in the source
[6] = target: T3, SaCoaBC (bifunctional CoaBC protein, phosphopantothenoylcysteine synthetase) (Staphylococcus aureus, UniProt Q2G268); test: progress curve inhibition analysis; type: biochemical
T3 sequence (Q2G268 1-399): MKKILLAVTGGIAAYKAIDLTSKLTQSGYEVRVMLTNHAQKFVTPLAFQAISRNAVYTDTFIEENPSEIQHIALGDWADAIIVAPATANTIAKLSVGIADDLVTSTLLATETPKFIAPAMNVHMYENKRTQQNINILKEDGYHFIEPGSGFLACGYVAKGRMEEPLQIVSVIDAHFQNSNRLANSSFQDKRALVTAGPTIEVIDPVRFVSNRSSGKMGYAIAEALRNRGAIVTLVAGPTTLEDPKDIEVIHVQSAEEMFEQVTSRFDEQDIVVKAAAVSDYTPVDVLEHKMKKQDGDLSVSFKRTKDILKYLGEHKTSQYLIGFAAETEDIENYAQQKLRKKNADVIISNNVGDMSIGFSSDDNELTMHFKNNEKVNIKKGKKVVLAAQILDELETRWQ

[7] = target: T1, EcPPCS (phosphopantothenoylcysteine synthetase); test: progress curves with Morrison fit, inhibitor formed in situ from P-CJ and CTP; type: biochemical

T1 sequence (P0ABQ0 181-406): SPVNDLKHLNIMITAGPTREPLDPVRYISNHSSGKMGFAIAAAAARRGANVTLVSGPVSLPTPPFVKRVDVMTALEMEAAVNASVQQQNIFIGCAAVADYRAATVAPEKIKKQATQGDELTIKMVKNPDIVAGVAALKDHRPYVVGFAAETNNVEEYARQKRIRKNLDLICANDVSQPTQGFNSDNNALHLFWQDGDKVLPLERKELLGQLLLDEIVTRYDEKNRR
T2 sequence (Q8NVG0 whole entry): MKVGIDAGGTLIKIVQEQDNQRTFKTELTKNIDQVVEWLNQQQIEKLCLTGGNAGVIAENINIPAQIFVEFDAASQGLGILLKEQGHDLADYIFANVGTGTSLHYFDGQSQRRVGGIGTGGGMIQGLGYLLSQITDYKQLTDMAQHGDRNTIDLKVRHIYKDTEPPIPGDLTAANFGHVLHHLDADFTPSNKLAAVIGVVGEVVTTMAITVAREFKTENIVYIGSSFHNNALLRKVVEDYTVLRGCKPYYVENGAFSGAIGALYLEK

## Nc1ccn([C@@H]2O[C@H](COP(=O)(O)OP(=O)(O)OP(=O)(O)O)[C@@H](O)[C@H]2O)c(=O)n1 [CTP]
[1]
  CD melting temperature shift (47.7 to 49.7 °C): 49.7 °C (Tm)

## CC(C)(CO)[C@@H](O)C(=O)N/C=C/C(=O)O [compound 1, CJ-15,801]
[2]
  HPLC of phosphorylation and coupled spectrophotometric kinase assay with purifie: 13.8±4.2 mM^−1.s^−1 (kcat/Km)

## CC(C)(CO)[C@@H](O)C(=O)NCCC(=O)O [compound 2, pantothenic acid]
[3]
  coupled spectrophotometric kinase assay with purified enzyme: 30.2±8.7 mM^−1.s^−1 (kcat/Km)

## CC(C)(COP(=O)(O)O)[C@@H](O)C(=O)N/C=C/C(=O)O [compound 13, P-CJ]
[4]
  IC50: 2660 ± 160 nM

## CC(C)(COP(=O)(O)O)[C@@H](O)C(=O)NCCC(=O)OP(=O)(O)OC[C@H]1O[C@@H](n2ccc(N)nc2=O)[C@H](O)[C@@H]1O [compound 14, P-Pan-CMP]
[5]
  CD melting temperature shift (47.7 to 54.3 °C), formed in situ from P-Pan and CT: 54.3 °C (Tm)

## CC(C)(COP(=O)(O)O)[C@@H](O)C(=O)N/C=C/C(=O)OP(=O)(O)OC[C@H]1O[C@@H](n2ccc(N)nc2=O)[C@H](O)[C@@H]1O [compound 16, P-CJ-CMP]
[6]
  Ki: 13 nM
[7]
  Ki: 164 nM
